Experimental data: patent US11993591B2, “Chromen-4-one derivatives for the treatment and prophylaxis of hepatitis B virus disease” (Hoffmann-La Roche Inc., priority 2018, dated 2024)

Test system: HBV cccDNA (HBeAg level) in HepDES19 cells
Assay: Engineered HepDES19 primary screen assay (HBeAg as surrogate marker for cccDNA)
Format: cell-based
Details: Hepatitis B virus, HepDES19, 120 h
Source text: The assay was employed to screen for novel cccDNA inhibitors. HepDES19 is a cccDNA-producing cell line. In this cell line, HBeAg in the cell culture supernatant as surrogate marker, as HBeAg production depends on cccDNA level and activity. HepDES19 is an engineered cell line which contains a 1.1 unit length HBV genome, and pgRNA transcription from the transgene is controlled by Tetracycline (Tet). In the absence of Tet, pgRNA transcription will be induced, but HBV e antigen (HBeAg) could not be produced from this pgRNA due to very short leader sequence before the HBeAg start codon and the start codon is disrupted. Only after cccDNA is formed, the missing leader sequence and start codon mutation would be restored from the 3′-terminal redundancy of pgRNA, and then HBeAg could be synthesized. Therefore, HBeAg could be used as a surrogate marker for cccDNA (Zhou, T. et al., Antiviral Res. (2006), 72(2), 116-124; Guo, H. et al., J. Virol. (2007), 81(22), 12472-12484).
HepDES19 cells were seeded at 2×10^6 cells per T150 flask and cultured with the culture medium (Dulbecco's Modified Eagle Medium: Nutrient Mixture F-12 [DMEM-F12, Gibco Cat. 11320-82], 10% Fetal Bovine Serum [FBS, Clontech Cat. 631101], 0.1 mM Non-Essential Amino Acids Solution [NEAA, Gibco Cat. 11140-050], 50 μg/mL Penicillin-Streptomycin [PS, Invitrogen Cat. 15140-163], 500 μg/mL Geneticin [G418, Invitrogen Cat. 10131-027]) containing 3 μg/mL Tet (Sigma, Cat. 87128) for 5 days. Cells were then seeded at 4×10^6 cells per T150 in the same culture medium as described above in the absence of Tet for 8 days. Cells were then harvested and frozen at density of 2×10^6 cells per mL. For compound testing, the frozen cells were thawed and seeded into 96-well plates at a density of 6×10^4 cells per well. At 24 hours after seeding, half log serial dilutions of compounds made with Dimethyl sulfoxide (DMSO, Sigma, Cat. D2650) were further diluted with the same culture medium as described above before they were added to the cells to reach desired final compound concentrations and 1% DMSO concentration. Plates were then incubated at 37° C. for another 5 days before measurement of HBeAg level and cell viability. Intracellular HBeAg level were measured with enzyme-linked immunosorbent assay (ELISA) kit (Shanghai Kehua Diagnostic Medical Products Co., Ltd). Cell viability was assessed using Cell Counting Kit-8 (Donjindo, Cat. CK04-20). IC50 values were derived from the dose-response curve using 4 parameter logistic curve fit method.
The compounds of the present invention were tested for their capacity to inhibit extracellular HBeAg level as described herein.

Structure (SMILES) | IC50
CC(NC(=O)c1cc(=O)c2cccc(Cl)c2o1)c1ccc(Br)cc1 (stereo not drawn) [Example 29, N-(1-(4-bromophenyl)ethyl)-8-chloro-4-oxo-chromene-2-carboxamide] | 24.9 µM
CC(C)(C)OC(=O)N1CC2(C1)CN(c1cc(=O)c3cccc(Cl)c3o1)C2 [Example 62, Tert-butyl 6-(8-chloro-4-oxo-chromen-2-yl)-2,6-diazaspiro[3.3]heptane-2-carboxylate] | 33.2 µM
COc1ccc(CNc2cc(=O)c3cccc(Cl)c3o2)cc1 [Example 52, 8-chloro-2-((4-methoxybenzyl)amino)-chromen-4-one] | 15 µM
O=C(O)C1CC(OCCOc2ccc(C3CCN(c4cc(=O)c5cc(F)cc(Cl)c5o4)CC3)cc2)C1 (stereo not drawn) [Example 50, 3-(2-(4-(1-(8-chloro-6-fluoro-4-oxo-chromen-2-yl)piperidin-4-yl)phenoxy)ethoxy)cyclobutane-1-carboxylic Acid] | 14.1 µM
O=C(O)COc1cc(Cl)ccc1NC(=O)c1cc(=O)c2cccc(Cl)c2o1 [Example 20, 2-(5-chloro-2-(8-chloro-4-oxo-chromene-2-carboxamido)phenoxy)acetic Acid] | 50 µM
O=c1cc(-n2ccc(OCc3ccccc3)cc2=O)oc2c(Cl)cccc12 [Example 59, 4-(benzyloxy)-1-(8-chloro-4-oxo-chromen-2-yl)pyridin-2(1H)-one] | 24.4 µM
COC(=O)c1cccc(N2CCN(c3cc(=O)c4cccc(Cl)c4o3)CC2)c1 [Example 53, Methyl 3-(4-(8-chloro-4-oxo-chromen-2-yl)piperazin-1-yl)benzoate] | 15 µM
COc1ccc2c(c1)C(=O)N(c1cc(=O)c3cccc(Cl)c3o1)CC2 [Example 65, 2-(8-chloro-4-oxo-chromen-2-yl)-7-methoxy-3,4-dihydroisoquinolin-1-one] | 37.6 µM
O=C(Nc1ccc(Cl)cc1OCCOC1CC(C(=O)O)C1)c1cc(=O)c2cccc(Cl)c2o1 (stereo not drawn) [Example 34, 3-(2-(5-chloro-2-(8-chloro-4-oxo-chromene-2-carboxamido)phenoxy)ethoxy)cyclobutane-1-carboxylic Acid] | 44.6 µM
O=c1c(I)c(N2CCC(O)CC2)oc2c(Cl)cccc12 [Example 61, 8-chloro-2-(4-hydroxypiperidin-1-yl)-3-iodo-chromen-4-one] | 30.9 µM
COC(=O)c1ccc(C)c(NC(=O)c2cc(=O)c3cccc(Cl)c3o2)c1 [Example 21, Methyl 3-(8-chloro-4-oxo-chromene-2-carboxamido)-4-methylbenzoate] | 11 µM
COc1cc(Br)cnc1NC(=O)c1cc(=O)c2cccc(Cl)c2o1 [Example 32, N-(5-bromo-3-methoxypyridin-2-yl)-8-chloro-4-oxo-chromene-2-carboxamide] | 33.7 µM
Cc1cc(Cl)ccc1NC(=O)c1cc(=O)c2cccc(Cl)c2o1 [Example 8, 8-chloro-N-(4-chloro-2-methylphenyl)-4-oxo-chromene-2-carboxamide] | 0.32 µM
CCOC(=O)c1nnc(NC(=O)c2cc(=O)c3cccc(Cl)c3o2)s1 [Example 35, Ethyl 5-(8-chloro-4-oxo-chromene-2-carboxamido)-1,3,4-thiadiazole-2-carboxylate] | 44.6 µM
COc1ccc2c(c1)CN(c1cc(=O)c3cccc(Cl)c3o1)C2=O [Example 43, 2-(8-chloro-4-oxo-chromen-2-yl)-5-methoxyisoindolin-1-one] | 4.78 µM
COc1ccc2c(c1)CCN(c1cc(=O)c3cccc(Cl)c3o1)C2=O [Example 44, 2-(8-chloro-4-oxo-chromen-2-yl)-6-methoxy-3,4-dihydroisoquinolin-1-one] | 5.44 µM
Cc1cc(NC(=O)c2cc(=O)c3cccc(Cl)c3o2)ncc1Br [Example 23, N-(5-bromo-4-methylpyridin-2-yl)-8-chloro-4-oxo-chromene-2-carboxamide] | 11.9 µM
COC(=O)c1cc(Cl)ccc1NC(=O)c1cc(=O)c2cccc(Cl)c2o1 [Example 25, Methyl 5-chloro-2-(8-chloro-4-oxo-chromene-2-carboxamido)benzoate] | 16.2 µM
O=C(O)COCCOc1cc(Cl)ccc1NC(=O)c1cc(=O)c2cc(Cl)cc(Cl)c2o1 [Example 22, 2-(2-(5-chloro-2-(6,8-dichloro-4-oxo-chromene-2-carboxamido)phenoxy)ethoxy)acetic Acid] | 11.9 µM
CC1c2ccc(O)cc2CCN1c1cc(=O)c2cccc(Cl)c2o1 (stereo not drawn) [Example 57, 8-chloro-2-(6-hydroxy-1-methyl-3,4-dihydro-1H-isoquinolin-2-yl)chromen-4-one] | 20 µM
COC(=O)C1CC(OCCOc2ccc3c(c2)C(=O)N(c2cc(=O)c4cccc(Cl)c4o2)C3)C1 (stereo not drawn) [Example 54, Methyl 3-(2-((2-(8-chloro-4-oxo-chromen-2-yl)-3-oxoisoindolin-5-yl)oxy)ethoxy)cyclobutanecarboxylate] | 16 µM
COC(=O)c1ccc(NC(=O)c2cc(=O)c3cccc(Cl)c3o2)c(C)c1 [Example 27, Methyl 4-(8-chloro-4-oxo-chromene-2-carboxamido)-3-methylbenzoate] | 23.4 µM
O=C(c1cc(=O)c2cccc(Cl)c2o1)N1Cc2cccc(Br)c2C1 [Example 31, 2-(4-bromoisoindoline-2-carbonyl)-8-chloro-chromen-4-one] | 26.8 µM
O=C(c1cc(=O)c2cccc(Cl)c2o1)N1CCCc2ccc([N+](=O)[O-])cc21 [Example 33, 8-chloro-2-(7-nitro-3,4-dihydro-2H-quinoline-1-carbonyl)chromen-4-one] | 35.3 µM
COc1ccc(CN(C)c2cc(=O)c3cccc(Cl)c3o2)cc1 [Example 48, 8-chloro-2-((4-methoxybenzyl)(methyl)amino)-chromen-4-one] | 12.1 µM
O=C(O)COCCOc1cc(Cl)ccc1NC(=O)c1cc(=O)c2cccc(Cl)c2o1 [Example 24, 2-(2-(5-chloro-2-(8-chloro-4-oxo-chromene-2-carboxamido)phenoxy)ethoxy)acetic Acid] | 13.9 µM
O=C(c1cc(=O)c2cccc(Cl)c2o1)N1CCc2cc(Br)ccc2C1 [Example 17, 2-(6-bromo-1,2,3,4-tetrahydroisoquinoline-2-carbonyl)-8-chloro-chromen-4-one] | 10.8 µM
